Test results published in patent US10457655B2, “Compounds and compositions for inhibition of FASN” (FORMA Therapeutics, Inc., priority 2013, dated 2019).
Where two headings read alike, the source gives them in different places.

Columns and labels:
FASN enzyme = FASN enzyme (Homo sapiens, UniProt P49327); assay: Enzymatic Assay for FASN Inhibitors; type: biochemical
Method in brief: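 40 nM FASN preincubated with compound 60 min at 25° C in HEPES pH 7.3 buffer with 0.04% Triton X-100. Then 20 μM acetyl-CoA, 60 μM malonyl-CoA and 100 μM NADPH added for 90 min, quenched with CPM thiol probe; fluorescence 360/530 nm, IC50 by four-parameter fit.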

PC3 cells = assay: Cell Proliferation Assays for FASN Inhibitors (PC3 cells, MTT); type: cell-based; conditions: Homo sapiens, PC-3, 96 h
Method in brief: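 PC3 cells seeded overnight, then exposed to compound for 4 days at 37 °C in F12K with 10% lipid-reduced serum, 0.1% final DMSO. Viability read by MTT; IC50 from four-parameter logistic fit of dose–response.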

[1] = read-out: IC50 (uM) < 0.5, 10% lipid reduced serum, 4 days, Table 3-1

FASN enzyme, sequence (P49327 whole entry): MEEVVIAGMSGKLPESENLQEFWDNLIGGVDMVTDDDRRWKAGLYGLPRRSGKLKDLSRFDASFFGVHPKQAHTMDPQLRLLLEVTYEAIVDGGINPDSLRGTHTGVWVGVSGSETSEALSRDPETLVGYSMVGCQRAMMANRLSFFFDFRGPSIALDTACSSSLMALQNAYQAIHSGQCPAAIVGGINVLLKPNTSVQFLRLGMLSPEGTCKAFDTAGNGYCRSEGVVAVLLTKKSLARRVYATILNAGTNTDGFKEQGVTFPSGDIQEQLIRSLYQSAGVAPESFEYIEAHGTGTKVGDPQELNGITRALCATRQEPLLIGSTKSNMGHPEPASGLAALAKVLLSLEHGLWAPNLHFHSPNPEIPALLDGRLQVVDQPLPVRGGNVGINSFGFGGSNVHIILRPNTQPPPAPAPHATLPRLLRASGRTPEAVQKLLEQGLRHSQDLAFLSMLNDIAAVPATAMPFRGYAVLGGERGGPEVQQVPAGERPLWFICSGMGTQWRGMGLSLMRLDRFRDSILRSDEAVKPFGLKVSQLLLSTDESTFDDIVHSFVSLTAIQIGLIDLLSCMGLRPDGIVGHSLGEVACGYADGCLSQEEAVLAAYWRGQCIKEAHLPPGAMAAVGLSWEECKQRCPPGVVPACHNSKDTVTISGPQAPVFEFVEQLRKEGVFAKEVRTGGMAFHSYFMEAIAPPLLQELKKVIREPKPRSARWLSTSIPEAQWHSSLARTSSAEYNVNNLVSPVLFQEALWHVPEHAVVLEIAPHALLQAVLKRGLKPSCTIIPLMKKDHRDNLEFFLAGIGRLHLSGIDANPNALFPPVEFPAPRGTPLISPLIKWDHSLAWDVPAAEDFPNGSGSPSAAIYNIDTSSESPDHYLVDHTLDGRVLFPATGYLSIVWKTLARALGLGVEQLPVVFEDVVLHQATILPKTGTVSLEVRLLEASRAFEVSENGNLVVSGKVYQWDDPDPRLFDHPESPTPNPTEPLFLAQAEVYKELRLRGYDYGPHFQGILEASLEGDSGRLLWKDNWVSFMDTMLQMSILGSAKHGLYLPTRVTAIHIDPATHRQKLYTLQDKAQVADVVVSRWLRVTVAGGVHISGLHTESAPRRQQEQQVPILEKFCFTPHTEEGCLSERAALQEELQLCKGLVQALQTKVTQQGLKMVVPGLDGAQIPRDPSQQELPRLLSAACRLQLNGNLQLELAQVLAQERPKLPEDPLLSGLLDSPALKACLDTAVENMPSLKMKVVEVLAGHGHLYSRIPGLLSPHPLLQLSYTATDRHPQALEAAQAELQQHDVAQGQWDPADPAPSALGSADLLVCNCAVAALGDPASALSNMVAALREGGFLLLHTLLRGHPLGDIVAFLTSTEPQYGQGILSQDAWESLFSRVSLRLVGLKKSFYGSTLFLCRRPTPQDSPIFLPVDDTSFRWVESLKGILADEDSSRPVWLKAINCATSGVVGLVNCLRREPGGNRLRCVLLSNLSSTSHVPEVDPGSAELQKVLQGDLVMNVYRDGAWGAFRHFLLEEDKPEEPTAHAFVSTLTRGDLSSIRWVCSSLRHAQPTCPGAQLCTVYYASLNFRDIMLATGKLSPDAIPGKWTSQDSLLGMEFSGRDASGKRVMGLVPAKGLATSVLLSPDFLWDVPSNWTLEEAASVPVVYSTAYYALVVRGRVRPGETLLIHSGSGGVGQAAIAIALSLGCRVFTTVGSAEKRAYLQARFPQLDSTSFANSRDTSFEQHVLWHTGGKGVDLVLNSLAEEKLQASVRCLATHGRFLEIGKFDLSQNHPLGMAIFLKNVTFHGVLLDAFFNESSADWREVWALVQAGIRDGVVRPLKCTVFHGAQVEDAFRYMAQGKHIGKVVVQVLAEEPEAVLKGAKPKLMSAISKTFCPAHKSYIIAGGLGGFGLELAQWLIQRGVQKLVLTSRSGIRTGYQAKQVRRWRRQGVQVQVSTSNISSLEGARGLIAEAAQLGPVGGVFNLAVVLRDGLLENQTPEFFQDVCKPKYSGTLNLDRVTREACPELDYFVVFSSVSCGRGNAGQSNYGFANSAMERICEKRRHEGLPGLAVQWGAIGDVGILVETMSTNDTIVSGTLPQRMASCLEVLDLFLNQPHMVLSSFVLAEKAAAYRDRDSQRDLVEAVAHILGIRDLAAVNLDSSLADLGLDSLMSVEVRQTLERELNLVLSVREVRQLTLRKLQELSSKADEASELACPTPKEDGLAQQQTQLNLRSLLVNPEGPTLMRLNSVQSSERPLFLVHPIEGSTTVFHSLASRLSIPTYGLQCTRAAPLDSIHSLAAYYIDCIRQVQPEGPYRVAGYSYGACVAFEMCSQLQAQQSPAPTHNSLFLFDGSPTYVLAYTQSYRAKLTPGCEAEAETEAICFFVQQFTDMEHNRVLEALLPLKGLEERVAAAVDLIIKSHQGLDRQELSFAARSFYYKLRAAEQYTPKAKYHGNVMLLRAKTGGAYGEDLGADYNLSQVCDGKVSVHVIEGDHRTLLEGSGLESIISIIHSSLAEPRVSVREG

Compound | IC50 (FASN enzyme) | IC50 (PC3 cells; [1]) | IC50 (FASN enzyme; FASN enzymatic assay, Table 2-2) | IC50 (PC3 cells; read-out: IC50 (uM) ≥ 0.5, 10% lipid reduced serum, 4 days, Table 3-2)
Cn1c(-c2ccc(C(=O)N3CCN(C(=O)C4(O)CC4)CC3)cc2)cc2ccccc21 [1-[(4-{[4-(1-methyl-1H-indol-2-yl)phenyl]carbonyl}piperazin-1-yl)carbonyl]cyclopropan-1-ol] | < 0.5 µM | < 0.5 µM | – | –
O=C(c1ccc(-c2cnc3ccccc3c2)c(Cl)c1)N1CCN(C(=O)C2(O)CC2)CC1 [1-[(4-{[3-chloro-4-(quinolin-3-yl)phenyl]carbonyl}piperazin-1-yl)carbonyl]cyclopropan-1-ol] | < 0.5 µM | < 0.5 µM | – | –
O=C(c1ccc(-c2ccc3ncsc3c2)cc1)N1CCN(C(=O)C2(O)CC2)CC1 [1-[(4-{[4-(1,3-benzothiazol-6-yl)phenyl]carbonyl}piperazin-1-yl)carbonyl]cyclopropan-1-ol] | < 0.5 µM | < 0.5 µM | – | –
Cn1ccc2cc(-c3ccc(C(=O)N4CCN(C(=O)C5(O)CC5)CC4)c(F)c3)ccc21 [1-[(4-{[2-fluoro-4-(1-methyl-1H-indol-5-yl)phenyl]carbonyl}piperazin-1-yl)carbonyl]cyclopropan-1-ol] | < 0.5 µM | < 0.5 µM | – | –
Cc1cc(C(=O)N2CCN(C(=O)C3(O)CC3)CC2)ccc1-c1ccc2scnc2c1 [1-[(4-{[4-(1,3-benzothiazol-5-yl)-3-methylphenyl]carbonyl}piperazin-1-yl)carbonyl]cyclopropan-1-ol] | < 0.5 µM | < 0.5 µM | – | –
O=C(c1ccc(-c2ccc(Cl)cc2Cl)cc1)N1CCN(C(=O)C2(O)CC2)CC1 [1-[(4-{[4-(2,4-dichlorophenyl)phenyl]carbonyl}piperazin-1-yl)carbonyl]cyclopropan-1-ol] | < 0.5 µM | – | – | ≥ 0.5 µM

The next lines start with the values.

IC50 (FASN enzyme) | IC50 (PC3 cells; [1]) | IC50 (FASN enzyme; FASN enzymatic assay, Table 2-2) | IC50 (PC3 cells; read-out: IC50 (uM) ≥ 0.5, 10% lipid reduced serum, 4 days, Table 3-2) | Compound
– | < 0.5 µM | 0.5 to 5 µM | – | O=C(c1ccc(-c2ccc3c(ccn3C(F)(F)F)c2)cc1)N1CCN(C(=O)C2(O)CC2)CC1 [1-{[4-({4-[1-(trifluoromethyl)-1H-indol-5-yl]phenyl}carbonyl)piperazin-1-yl]carbonyl}cyclopropan-1-ol]
< 0.5 µM | < 0.5 µM | – | – | N#Cc1cc2cc(-c3ccc(C(=O)N4CCN(C(=O)C5(O)CC5)CC4)cc3)ccc2[nH]1 [5-[4-({4-[(1-hydroxycyclopropyl)carbonyl]piperazin-1-yl}carbonyl)phenyl]-1H-indole-2-carbonitrile]
< 0.5 µM | < 0.5 µM | – | – | O=C(c1ccc(-c2cnc3ccccc3c2Cl)cc1)N1CCN(C(=O)C2(O)CC2)CC1 [1-[(4-{[4-(4-chloroquinolin-3-yl)phenyl]carbonyl}piperazin-1-yl)carbonyl]cyclopropan-1-ol]
< 0.5 µM | < 0.5 µM | – | – | O=C(c1ccc(-c2nc3cc(Cl)ccc3o2)cc1)N1CCN(C(=O)C2(O)CC2)CC1 [1-[(4-{[4-(5-chloro-1,3-benzoxazol-2-yl)phenyl]carbonyl}piperazin-1-yl)carbonyl]cyclopropan-1-ol]
